From ChEMBL document CHEMBL5291721, “A preclinical secondary pharmacology resource illuminates target-adverse drug reaction associations of marketed drugs” (Nat Commun, 2023)

How the values were obtained:
[1] = target: T1, Alpha-1A adrenergic receptor (Homo sapiens, UniProt P35348); type: functional, cell-based
T1 sequence (P35348 whole entry): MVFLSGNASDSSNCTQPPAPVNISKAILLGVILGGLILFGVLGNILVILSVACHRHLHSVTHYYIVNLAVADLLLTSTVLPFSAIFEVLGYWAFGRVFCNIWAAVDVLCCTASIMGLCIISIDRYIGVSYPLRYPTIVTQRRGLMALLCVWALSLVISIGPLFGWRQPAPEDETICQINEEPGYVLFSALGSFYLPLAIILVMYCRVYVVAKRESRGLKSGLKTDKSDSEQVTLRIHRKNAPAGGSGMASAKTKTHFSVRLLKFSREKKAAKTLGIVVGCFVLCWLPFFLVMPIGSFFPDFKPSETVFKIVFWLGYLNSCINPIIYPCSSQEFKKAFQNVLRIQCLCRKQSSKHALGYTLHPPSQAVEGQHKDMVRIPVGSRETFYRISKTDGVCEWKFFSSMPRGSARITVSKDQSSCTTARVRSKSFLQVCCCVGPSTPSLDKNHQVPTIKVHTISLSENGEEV

[2] = target: 5-hydroxytryptamine receptor 2B (Homo sapiens, UniProt P41595); type: functional, cell-based
5-hydroxytryptamine receptor 2B, sequence (P41595 whole entry): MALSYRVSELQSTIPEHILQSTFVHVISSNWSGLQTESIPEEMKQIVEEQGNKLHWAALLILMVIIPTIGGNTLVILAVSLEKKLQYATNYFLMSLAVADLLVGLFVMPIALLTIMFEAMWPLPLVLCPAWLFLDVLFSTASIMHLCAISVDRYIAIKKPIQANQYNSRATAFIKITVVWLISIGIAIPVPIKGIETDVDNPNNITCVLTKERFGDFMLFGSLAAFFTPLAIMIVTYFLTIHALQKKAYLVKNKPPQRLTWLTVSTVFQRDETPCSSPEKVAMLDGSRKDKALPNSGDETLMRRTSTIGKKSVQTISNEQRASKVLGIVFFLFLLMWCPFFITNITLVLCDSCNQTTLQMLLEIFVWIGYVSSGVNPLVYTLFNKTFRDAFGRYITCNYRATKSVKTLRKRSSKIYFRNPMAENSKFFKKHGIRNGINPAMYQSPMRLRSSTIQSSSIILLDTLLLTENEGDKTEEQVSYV

[3] = target: T2, Progesterone receptor (Homo sapiens, UniProt P06401)
T2 sequence (P06401 whole entry): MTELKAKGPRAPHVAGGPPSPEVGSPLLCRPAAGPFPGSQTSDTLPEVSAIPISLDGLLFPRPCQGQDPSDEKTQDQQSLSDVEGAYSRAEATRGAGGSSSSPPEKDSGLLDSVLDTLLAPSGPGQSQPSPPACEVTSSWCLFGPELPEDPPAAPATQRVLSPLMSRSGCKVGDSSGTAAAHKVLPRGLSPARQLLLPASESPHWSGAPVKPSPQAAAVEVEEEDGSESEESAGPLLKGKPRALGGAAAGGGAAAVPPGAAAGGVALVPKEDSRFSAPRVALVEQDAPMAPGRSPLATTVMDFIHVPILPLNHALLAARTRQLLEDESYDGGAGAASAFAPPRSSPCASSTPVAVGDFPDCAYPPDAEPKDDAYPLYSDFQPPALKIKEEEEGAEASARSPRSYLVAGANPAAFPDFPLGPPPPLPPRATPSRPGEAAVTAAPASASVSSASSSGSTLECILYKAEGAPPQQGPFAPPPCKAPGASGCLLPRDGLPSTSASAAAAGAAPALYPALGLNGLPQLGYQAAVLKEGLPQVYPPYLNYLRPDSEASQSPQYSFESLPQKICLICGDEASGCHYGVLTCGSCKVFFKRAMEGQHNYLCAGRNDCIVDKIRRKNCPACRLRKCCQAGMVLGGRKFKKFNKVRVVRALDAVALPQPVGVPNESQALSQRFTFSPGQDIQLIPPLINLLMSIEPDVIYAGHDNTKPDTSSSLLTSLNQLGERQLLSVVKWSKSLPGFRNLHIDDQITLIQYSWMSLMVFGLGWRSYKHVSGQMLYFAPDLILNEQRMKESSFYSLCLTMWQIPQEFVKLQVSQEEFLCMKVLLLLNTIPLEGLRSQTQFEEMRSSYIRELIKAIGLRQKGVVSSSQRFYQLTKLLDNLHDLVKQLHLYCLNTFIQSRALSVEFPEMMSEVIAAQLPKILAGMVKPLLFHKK

[4] = target: Neuronal acetylcholine receptor subunit alpha-4 (Homo sapiens, UniProt P43681)
Neuronal acetylcholine receptor subunit alpha-4, sequence (P43681 whole entry): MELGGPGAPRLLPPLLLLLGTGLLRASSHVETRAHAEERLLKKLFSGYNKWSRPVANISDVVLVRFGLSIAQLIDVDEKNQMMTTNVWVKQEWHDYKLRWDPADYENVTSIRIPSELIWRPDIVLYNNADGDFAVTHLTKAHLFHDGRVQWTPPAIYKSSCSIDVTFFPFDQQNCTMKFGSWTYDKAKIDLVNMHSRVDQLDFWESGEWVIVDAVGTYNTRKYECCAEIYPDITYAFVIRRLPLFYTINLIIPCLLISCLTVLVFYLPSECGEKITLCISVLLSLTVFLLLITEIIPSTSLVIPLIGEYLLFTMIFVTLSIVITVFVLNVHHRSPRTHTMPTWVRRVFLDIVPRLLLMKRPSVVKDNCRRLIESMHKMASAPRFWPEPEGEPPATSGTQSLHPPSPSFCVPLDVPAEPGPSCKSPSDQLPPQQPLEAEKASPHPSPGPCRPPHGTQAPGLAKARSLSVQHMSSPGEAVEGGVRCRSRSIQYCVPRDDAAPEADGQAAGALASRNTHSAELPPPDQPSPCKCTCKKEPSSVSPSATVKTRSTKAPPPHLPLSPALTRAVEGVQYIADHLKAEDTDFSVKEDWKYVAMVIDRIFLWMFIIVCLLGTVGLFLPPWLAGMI

[5] = target: T1, Alpha-1A adrenergic receptor; type: functional, cell-based; remark: listed apart in the source
[6] = target: T3, Adenosine receptor A1 (Homo sapiens, UniProt P30542)
T3 sequence (P30542 whole entry): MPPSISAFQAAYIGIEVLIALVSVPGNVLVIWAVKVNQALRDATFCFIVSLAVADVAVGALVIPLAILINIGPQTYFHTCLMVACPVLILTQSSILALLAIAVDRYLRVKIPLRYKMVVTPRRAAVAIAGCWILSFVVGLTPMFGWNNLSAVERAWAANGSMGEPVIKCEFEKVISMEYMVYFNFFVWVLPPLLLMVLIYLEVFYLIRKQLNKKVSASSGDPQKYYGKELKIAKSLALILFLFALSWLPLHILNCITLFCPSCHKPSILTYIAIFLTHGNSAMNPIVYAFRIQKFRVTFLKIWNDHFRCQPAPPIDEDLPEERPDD

[7] = target: T4, Thromboxane A2 receptor (Homo sapiens, UniProt P21731)
T4 sequence (P21731 whole entry): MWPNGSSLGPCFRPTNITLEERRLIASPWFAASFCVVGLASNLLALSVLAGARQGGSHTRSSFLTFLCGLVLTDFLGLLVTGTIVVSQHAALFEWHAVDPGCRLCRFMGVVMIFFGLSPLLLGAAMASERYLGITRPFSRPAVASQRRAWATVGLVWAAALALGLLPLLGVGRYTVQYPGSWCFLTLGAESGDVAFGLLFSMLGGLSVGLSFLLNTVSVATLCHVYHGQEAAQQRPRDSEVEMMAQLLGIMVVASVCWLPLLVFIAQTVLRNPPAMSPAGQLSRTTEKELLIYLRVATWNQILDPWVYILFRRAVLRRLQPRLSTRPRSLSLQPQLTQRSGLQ

[8] = target: T5, Gastrin/cholecystokinin type B receptor (Homo sapiens, UniProt P32239)
T5 sequence (P32239 whole entry): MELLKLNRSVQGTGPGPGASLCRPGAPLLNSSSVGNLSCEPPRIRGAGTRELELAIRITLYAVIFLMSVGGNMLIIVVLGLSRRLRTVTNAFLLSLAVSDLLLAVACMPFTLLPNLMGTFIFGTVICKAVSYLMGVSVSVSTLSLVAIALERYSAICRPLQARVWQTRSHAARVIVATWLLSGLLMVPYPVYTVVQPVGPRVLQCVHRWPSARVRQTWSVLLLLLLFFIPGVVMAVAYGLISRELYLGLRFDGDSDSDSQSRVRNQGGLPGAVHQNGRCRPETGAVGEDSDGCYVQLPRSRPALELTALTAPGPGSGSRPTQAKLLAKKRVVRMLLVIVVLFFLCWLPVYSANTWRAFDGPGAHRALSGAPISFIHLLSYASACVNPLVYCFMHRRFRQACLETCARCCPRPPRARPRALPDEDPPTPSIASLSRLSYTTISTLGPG
Further: assay procedure not described here.

Work on `C#Cc1cccc(Nc2ncnc3cc(OCCOC)c(OCCOC)cc23)c1` [ERLOTINIB] yielded an AC50 [1] greater than 30 µM, an AC50 [2] greater than 30 µM and an AC50 [3] greater than 30 µM. For the same compound, the AC50 [4] was greater than 30 µM, the AC50 [5] was greater than 30 µM and the AC50 [6] was greater than 30 µM.
Work on `CC(=O)/N=c1/sc(S(N)(=O)=O)nn1C` [METHAZOLAMIDE] yielded an AC50 [1] greater than 30 µM, an AC50 [2] greater than 10 µM and an AC50 [3] greater than 30 µM. It also gave an AC50 [4] greater than 10 µM, an AC50 [6] greater than 10 µM and an AC50 [7] greater than 10 µM.
For `CC(=O)Oc1ccccc1C(=O)Nc1ncc([N+](=O)[O-])s1` [NITAZOXANIDE], the AC50 [1] was greater than 10 µM, the AC50 [2] was 17 µM and the AC50 [3] was greater than 30 µM. For the same compound, the AC50 [4] was 8.8 µM, the AC50 [5] was greater than 30 µM and the AC50 [6] was 7.1 µM. The AC50 [7] was 5 µM and the AC50 [8] was 10 µM.
Work on `CN(C)C(=O)c1nc(CNC(=O)CN)n(-c2ccc(Cl)cc2C(=O)c2ccccc2Cl)n1` [RILMAZAFONE] yielded an AC50 [1] greater than 30 µM and an AC50 [3] greater than 30 µM.
For `NC(=O)NS(=O)(=O)c1ccc(N)cc1` [SULFACARBAMIDE], the AC50 [1] was greater than 30 µM and the AC50 [3] was greater than 30 µM.
`CCCCCCCCNC(C)C(O)c1ccc(SC(C)C)cc1` (configuration not stated) [SULOCTIDIL] was tested, and the AC50 [1] was 11 µM and the AC50 [3] was greater than 30 µM.
For `CCCCNc1ccc(C(=O)OCCN(C)C)cc1` [TETRACAINE], the AC50 [1] was greater than 30 µM, the AC50 [2] was 33 µM and the AC50 [3] was greater than 30 µM. The AC50 [4] was greater than 10 µM, the AC50 [5] was greater than 30 µM and the AC50 [6] was greater than 30 µM. It also gave an AC50 [7] greater than 30 µM and an AC50 [8] greater than 30 µM.
Work on `Cn1c(=O)c2[nH]cnc2n(C)c1=O` [THEOPHYLLINE] yielded an AC50 [1] greater than 30 µM, an AC50 [2] greater than 10 µM and an AC50 [3] greater than 30 µM. It also gave an AC50 [4] greater than 10 µM, an AC50 [5] greater than 30 µM and an AC50 [7] greater than 30 µM. The AC50 [8] was greater than 30 µM.
`CC1(C)O[C@@H]2[C@@H](CO[C@@]3(COS(N)(=O)=O)OC(C)(C)O[C@@H]23)O1` [TOPIRAMATE] showed an AC50 [1] greater than 30 µM, an AC50 [2] greater than 10 µM and an AC50 [3] greater than 30 µM. The AC50 [4] was greater than 10 µM, the AC50 [6] was greater than 30 µM and the AC50 [7] was greater than 30 µM. It also gave an AC50 [8] greater than 30 µM.
In the case of `NCCc1ccc(O)cc1` [TYRAMINE], the AC50 [1] is reported as greater than 30 µM and the AC50 [3] is reported as greater than 30 µM.
For `CCCCCCCCCCCCCCCC(=O)OC/C=C(C)/C=C/C=C(C)/C=C/C1=C(C)CCCC1(C)C` [VITAMIN A PALMITATE], the AC50 [1] was greater than 30 µM and the AC50 [3] was greater than 30 µM.
